Source: patent US11234960B2, “Compositions and methods for improving mitochondrial function and treating neurodegenerative diseases and cognitive disorders” (Amazentis SA, priority 2010, dated 2022)

Tests used:
[1] = system: C57BL6/J mice fed standard chow diet; experiment: Body composition (EchoMRI) in standard chow diet fed mice; format: in vivo; details: 2 weeks of treatment, ellagic acid 75 mkd; for percentage of lean mass (EchoMRI): urolithin A 55 mkd food admix (FIG. 18A); for percentage of fat mass (EchoMRI): urolithin A 55 mkd food admix (FIG. 18B)
Excerpt: Male C57BL6/J mice were purchased from Charles River Laboratory (L'Arbresle, France) at the age of 7 weeks and acclimatized to the animal facility for 2 weeks before initiation of experiments. Mice were housed in groups of 5 in standard housing conditions, with a 12 hr light-dark cycle and free access to food and water. Beginning at 9 weeks of age, mice were fed a high-fat diet (HFD) (60% kcal from fat; D12492; Research Diets Inc., New Brunswick, N.J., USA) for fourteen weeks. Body weight was monitored weekly.
Mice in different treatment groups were administered (i) urolithin A mixed with food (food admix) to reach a dosing of 55 mg/kg body weight/day (mkd); (ii) ellagic acid mixed with food (food admix) to reach a dosing of 75 mkd; (iii) punicalagin (gavage) to reach a dosing of 90 mkd; or (iv) pomegranate extract (PE) (gavage) to reach a dosing of 140 mkd of total polyphenols. A typical pomegranate extract used in these experiments had the following composition: polyphenols, 140 mkd; punicalagin, 13.1 mkd; and ellagic acid, 13.2 mkd. For animals treated by gavage, gavage was performed daily (7 days/week) between 8:00 and 10:00 a.m.; compounds were mixed with saline solution (0.9% NaCl) and provided at a final volume of 5 mL/kg of body weight. Mice in high-fat control groups were fed with the same diet as the experimental animals. Mice in corresponding different control groups were administered either high-fat diet alone or high-fat diet plus daily gavage with vehicle (saline). Another control group of mice were fed standard chow diet alone.
Body composition was monitored by EchoMRI (Echo Medical Systems, Houston, Tex., USA) 5 weeks after the initiation of the treatment for high-fat diet fed mice and 2 weeks after the initiation of the treatment for chow diet fed mice. Animals were placed individually into a plastic cylinder and then introduced into an EchoMRI system for about 2 min for body composition scanning (lean and fat mass).

[2] = system: high fat diet (HFD)-fed C57BL6/J mice; experiment: Body weight and body composition (EchoMRI) in high-fat diet fed mice; format: in vivo; details: for body weight gain: HFD-fed mice vs control HFD-fed mice, PE 140 mkd polyphenols gavage (FIG. 17A); for body weight gain / percentage fat mass (EchoMRI): urolithin A 55 mkd food admix, punicalagin 90 mkd gavage; for percentage of lean mass (EchoMRI) / percentage fat mass (EchoMRI): HFD-fed mice; for percentage of lean mass (EchoMRI): 5 weeks of treatment (FIG. 17C); for percentage fat mass (EchoMRI): 5 weeks of treatment, PE 140 mkd gavage (FIG. 17B)
[3] = system: C2C12 myotubes (PGC-1α, Tfam, PFKFB3, CPT1b, MCAD, LCAD, Ndufa2, Cyt c, Mfn2); experiment: Mitochondrial gene expression by real time quantitative PCR in C2C12 myotubes; format: cell-based; details: 48 hr, 1, 10 or 50 μM, vs DMSO control (FIG. 3)
Method: To assess the effects of compounds on mitochondrial gene expression, C2C12 myoblasts were differentiated into myotubes by serum deprivation for 4 days (Cantó et al. (2009) Nature. 458:1056-60). Myotubes were incubated for 48 hr with ellagic acid or urolithin A at a final concentration of 1, 10 or 50 μM (all dissolved in DMSO, final concentration 0.1%). DMSO was used as a control (final concentration 0.1%). At the end of the treatment, cells were washed with phosphate buffered saline (PBS) and mRNA were immediately extracted according to manufacturer's instructions (Trizol Reagent, Invitrogen) by adding 1 mL of Trizol reagent. After extraction, cDNA were produced by reverse transcription according to manufacturer's instructions.
Assessment of the expression levels of genes (PGC-1α, Tfam, PFKFB3, CPT1b, MCAD, LCAD, Ndufa2, Cyt c, and Mfn2) which control the mitochondrial function was performed by real time quantitative PCR (Watanabe et al. (2004) J Clin Invest. 113:1408-18) by using the following set of primers (Fwd: forward primer; Rev: reverse primer): […]
PGC-1α (PPARγ-coregulator 1α) and Tfam (mitochondrial transcription factor A) are master regulators of the mitochondrial function, namely of mitochondrial biogenesis and mitochondrial phosphorylative oxidation (mOXPHOS). […]

HFD-fed C57BL6/J mice [4] = experiment: Plasma biochemistry in HFD-fed mice; format: in vivo; details: HFD-fed mice treated for 14 weeks; for plasma levels of triglycerides: fasted 12 h (FIG. 23A); for plasma levels of free fatty acids: fasted 12 h (FIG. 23B)
Method: In addition, plasma biochemistry was performed 14 weeks after the initiation of the treatment using a standard automated clinical chemistry analyzer (Dimension Xpand, SIEMENS). Animals were fasted for 12 h (from 8 pm to 8 am) before blood collection. Approximately 500 μL of blood was collected from vena cava in anesthetized animals under isofluorane anesthesia. Blood was collected in heparinized tubes and immediately placed on wet ice. Plasma was prepared by centrifugation (1500×g, 15 min, 4° C.). Plasma samples were then transferred in clean 1.5 mL microtubes and stored at −80° C. until biochemical measurements were performed on a standard automated clinical chemistry analyzer (Dimension Xpand, SIEMENS) using corresponding kits.

HFD-fed C57BL6/J mice [5] = experiment: Indirect calorimetry (CLAMS) in HFD-fed mice; format: in vivo; details: for respiratory exchange ratio (RER): HFD-fed mice (FIGS. 22A, 22B); for energy expenditure (oxygen consumption, VO2): HFD-fed mice, 8 weeks after initiation of treatment (FIGS. 20A, 20B)
Method: Mice in different treatment groups were administered (i) urolithin A mixed with food (food admix) to reach a dosing of 55 mg/kg body weight/day (mkd); (ii) ellagic acid mixed with food (food admix) to reach a dosing of 75 mkd; (iii) punicalagin (gavage) to reach a dosing of 90 mkd; or (iv) pomegranate extract (PE) (gavage) to reach a dosing of 140 mkd of total polyphenols. […] For animals treated by gavage, gavage was performed daily (7 days/week) between 8:00 and 10:00 a.m.; compounds were mixed with saline solution (0.9% NaCl) and provided at a final volume of 5 mL/kg of body weight.
In addition, however, basal energy expenditure of mice was measured by indirect calorimetry oxygen consumption, carbon dioxide production, and respiratory exchange ratio), 8 weeks after the initiation of treatment for the HFD-fed mice and 2 weeks after the initiation of treatment for standard show diet-fed mice, using the Comprehensive Laboratory Animal Monitoring System (CLAMS; Columbus Instruments, Columbus, Ohio, USA). Animals were first acclimatized for 22 h to CLAMS cages (room temperature 22° C.±1° C.) starting between 11 to 12 am. Then measurement was performed for at least 20 h in the same condition. Measurement included an entire dark cycle. Parameters measured during CLAMS were the following: (i) Oxygen consumption (VO2 in mL/kg/h): VO2 is directly correlated to energy expenditure; (ii) Carbon dioxide production (VCO2 in mL/kg/h); and (iii) Respiratory Exchange Ratio (RER): VCO2/VO2: RER is an indicator of the use of energy substrate.

Row | SMILES | percentage of lean mass (EchoMRI) [1] | percentage of fat mass (EchoMRI) [1] | body weight gain [2] | percentage of lean mass (EchoMRI) [2] | percentage fat mass (EchoMRI) [2] | mitochondrial activity by expression of mitochondrial genes [3] | plasma levels of triglycerides (HFD-fed C57BL6/J mice [4]) | plasma levels of free fatty acids (HFD-fed C57BL6/J mice [4]) | respiratory exchange ratio (RER) (HFD-fed C57BL6/J mice [5]) | energy expenditure (oxygen consumption, VO2) (HFD-fed C57BL6/J mice [5])
1 | O=c1oc2cc(O)ccc2c2ccc(O)cc12 [urolithin A, 3,8-Dihydroxydibenzo-α-pyrone] | statistically significant increase in the percentage of lean mass | reduction in fat mass | strong reduction of body weight gain | statistically significant increase in the percentage of lean mass | significantly reduced | increase mitochondrial activity in a dose-dependent manner | statistically significant improvement | statistically significant improvement | significantly decreased RER | increased energy expenditure
2 | O=c1oc2c(O)c(O)cc3c(=O)oc4c(O)c(O)cc1c4c23 [ellagic acid] | statistically significant increase in the percentage of lean mass | reduction in fat mass | – | – | – | increase mitochondrial activity in a dose-dependent manner | – | – | – | –
3 | O=C1O[C@H]2[C@@H]3OC(=O)c4cc(O)c(O)c(O)c4-c4c(O)c(O)c5oc(=O)c6c(c(O)c(O)c7oc(=O)c4c5c76)-c4c(cc(O)c(O)c4O)C(=O)OC[C@H]3OC(O)[C@@H]2OC(=O)c2cc(O)c(O)c(O)c2-c2c1cc(O)c(O)c2O (mixture of isomers) [punicalagin, 2,3 hexahydroxydiphenoyl-4,6-gallagylglucose] | – | – | strong reduction of body weight gain | statistically significant increase in the percentage of lean mass | significantly reduced | – | statistically significant improvement | statistically significant improvement | significantly decreased RER | increased energy expenditure
